From ChEMBL document CHEMBL1201862, “PubChem BioAssay data set” (2004) come the findings set out here.

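Growth conditions: 96-well plates. Treatment: test compound, 48 hours, 5 concentrations. Analysis: linear interpolation between bracketing concentrations; unreached endpoints set to highest concentration. GI50 is the concentration that inhibits growth by half.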 The source made the active and inactive calls. Rule as the data show it: active = GI50 up to about 1.1 µM and inactive = higher.

Test systems include HCT-15; LOX IMVI; SW-620; MDA-MB-435; M14; A498; U-251; IGROV-1; OVCAR-5; K562; SF-539; SK-MEL-28; HCT-116; CCRF-CEM; SNB-75; MDA-N; HT-29; 786-0; OVCAR-4; SK-MEL-2.
Common to all, as to assay: NCI-60 cell line screen, 48 h

Regarding `Cc1ccc(NC(S)=Nc2c(C)n(C)n(-c3ccccc3)c2=O)cc1`, the GI50 in the experiment with HCT-15 was greater than 100 µM; in the experiment with LOX IMVI it was > 100 µM (inactive); in the experiment with SW-620 it was > 100 µM (inactive); in the experiment with MDA-MB-435, > 100 µM (inactive); in the experiment with M14, > 100 µM (inactive); with A498 it was > 100 µM (inactive). The GI50 in the experiment on U-251, in the experiment on IGROV-1, in the experiment on OVCAR-5, with K562, in the experiment on SF-539 and in the experiment on SK-MEL-28 was > 100 µM (inactive) throughout. Also, the GI50 in the experiment on HCT-116, in the experiment with CCRF-CEM, in the experiment on SNB-75, in the experiment on MDA-N, in the experiment on HT-29 and in the experiment with 786-0 was > 100 µM (inactive) in each case.

For `CNC(=S)/C(=N\Nc1[nH]cnc1C(N)=O)C(N)=S`, the GI50 was 15.1 µM in the experiment with HCT-15; 0.598 µM (active) in the experiment with LOX IMVI; 3.78 µM (inactive) with SW-620; 7.03 µM (inactive) with MDA-MB-435; 1.1 µM (active) with M14; 30.3 µM (inactive) in the experiment on U-251. Besides, the GI50 is 3.56 µM (inactive) with IGROV-1; > 31.6 µM (inactive) in the experiment with OVCAR-5; 0.444 µM (active) with K562; 5.21 µM (inactive) in the experiment with SF-539; 69.7 µM (inactive) with SK-MEL-28; 4.17 µM (inactive) with OVCAR-4. In addition, the GI50 with HCT-116 was 3.52 µM (inactive); with SK-MEL-2, 0.875 µM (active); in the experiment with CCRF-CEM, 0.689 µM (active); with SNB-75 it was 6.82 µM (inactive); with MDA-N it was 4.34 µM (inactive); in the experiment on HT-29, 16.1 µM (inactive). In addition, the GI50 in the experiment on 786-0 is 7.71 µM (inactive).

Turning to `CC1=CC[C@@H]2[C@@H](CC[C@@]2(C)O)C(C)(C)[C@H]1CC[C@@H]1[C@@]2(C)CC[C@@H](O)C(C)(C)O[C@@H]2CC[C@]1(C)O`, the GI50 in the experiment on HCT-15 is 18.2 µM; in the experiment on LOX IMVI, 16.3 µM (inactive); with SW-620 it was 31.8 µM (inactive); in the experiment with MDA-MB-435, 22.3 µM (inactive); with M14 it was 22.5 µM (inactive); in the experiment on A498, 15 µM (inactive). Moreover, the GI50 in the experiment with U-251 was 17.1 µM (inactive); in the experiment on OVCAR-5, 29.9 µM (inactive); in the experiment with K562 it was 15.3 µM (inactive); in the experiment with SF-539 it was 19.6 µM (inactive); in the experiment with SK-MEL-28, 16.8 µM (inactive); in the experiment with OVCAR-4 it was 37.2 µM (inactive). The GI50 is 14 µM (inactive) in the experiment on HCT-116; 34 µM (inactive) in the experiment on SK-MEL-2; > 10 µM (inactive) with CCRF-CEM; 22.5 µM (inactive) in the experiment on MDA-N; 18.3 µM (inactive) in the experiment on 786-0.

Regarding `COC(=O)c1ccc(C)cc1CC1Cc2cccc(C)c2C1=O` (stereo unspecified), the GI50 is 3.1 µM in the experiment on HCT-15; 2.88 µM (inactive) in the experiment with LOX IMVI; 3.72 µM (inactive) with SW-620; 1.48 µM (inactive) in the experiment on MDA-MB-435; 3.93 µM (inactive) with M14; 3.87 µM (inactive) in the experiment on U-251. Further, the GI50 with IGROV-1 is 7.96 µM (inactive); in the experiment with OVCAR-5, 14 µM (inactive); with K562, 2.77 µM (inactive); with SF-539, 4.02 µM (inactive); in the experiment on SK-MEL-28, 7.41 µM (inactive); in the experiment on OVCAR-4, 19.2 µM (inactive). Besides, the GI50 was 3.68 µM (inactive) with HCT-116; 4.34 µM (inactive) with SK-MEL-2; 4.73 µM (inactive) with CCRF-CEM; 5.02 µM (inactive) with SNB-75; 1.87 µM (inactive) in the experiment with MDA-N; 2.42 µM (inactive) with HT-29. Moreover, the GI50 in the experiment with 786-0 is 14.6 µM (inactive).

On to `CCOc1ccc2c(c1)NC(=O)C(C1OC(c3ccccc3)=CC1=O)S2` (stereo unspecified), for which the GI50 in the experiment on HCT-15 is 21.8 µM; with LOX IMVI, 23.2 µM (inactive); in the experiment on SW-620 it was 33.4 µM (inactive); in the experiment with MDA-MB-435 it was 18.5 µM (inactive); with M14, 48.2 µM (inactive); with A498, > 100 µM (inactive). For the same compound, the GI50 is 19.7 µM (inactive) in the experiment with U-251; 17 µM (inactive) in the experiment with IGROV-1; 16.1 µM (inactive) with OVCAR-5; 24.2 µM (inactive) in the experiment on K562; 25.1 µM (inactive) in the experiment on SF-539; 31 µM (inactive) in the experiment with SK-MEL-28. The GI50 is 35.6 µM (inactive) in the experiment with HCT-116; 40.1 µM (inactive) in the experiment with SK-MEL-2; 1.9 µM (inactive) in the experiment on CCRF-CEM; 25.1 µM (inactive) with MDA-N; 20.2 µM (inactive) in the experiment on HT-29; 33.3 µM (inactive) with 786-0.

On to `CC(C)(C)OC(=O)n1c(-c2ccccc2F)cc(=O)c2cc3c(cc21)OCO3`, for which the GI50 in the experiment with HCT-15 was 0.0505 µM; with LOX IMVI, 0.111 µM (active); in the experiment with SW-620, 0.0596 µM (active); in the experiment on MDA-MB-435, 0.0214 µM (active); in the experiment on M14 it was 1.4 µM (inactive); with A498, 0.141 µM (active). Besides, the GI50 in the experiment with U-251 is 0.0476 µM (active); in the experiment on OVCAR-5, 6.53 µM (inactive); with SF-539, 0.0736 µM (active); in the experiment with SK-MEL-28, > 100 µM (inactive); with HCT-116 it was 0.0426 µM (active); in the experiment with SK-MEL-2, 0.0531 µM (active). The GI50 with CCRF-CEM was 0.0638 µM (active); in the experiment on SNB-75, 0.0318 µM (active); in the experiment on MDA-N, < 0.01 µM (active); in the experiment with HT-29, 0.0497 µM (active); in the experiment with 786-0, 0.0541 µM (active).

`COc1ccc2c(c1)nc1n2C(c2c(F)cccc2Cl)SC1` (stereo unspecified): the GI50 in the experiment with HCT-15 was 3.03 µM; with LOX IMVI it was 6.64 µM (inactive); with MDA-MB-435 it was 0.703 µM (active); in the experiment on M14, 3.9 µM (inactive); in the experiment on A498, 5.89 µM (inactive); with U-251, 5.08 µM (inactive). In addition, the GI50 in the experiment on IGROV-1 is 6.17 µM (inactive); with OVCAR-5 it was > 37.2 µM (inactive); in the experiment on K562, > 100 µM (inactive); in the experiment on SF-539 it was 3.25 µM (inactive); with SK-MEL-28 it was 5 µM (inactive); in the experiment with HCT-116 it was 4.14 µM (inactive). For the same compound, the GI50 with CCRF-CEM is 3.1 µM (inactive); with SNB-75, 1.68 µM (inactive); with MDA-N, 1.35 µM (inactive); in the experiment with HT-29 it was 4.52 µM (inactive); with 786-0 it was 5.68 µM (inactive).

Consider `CNC(=S)NNc1ncnc2c1c(-c1ccc(Cl)cc1)cn2-c1ccc(C)cc1`, for which the GI50 was 8.39 µM in the experiment with HCT-15; 9.38 µM (inactive) with LOX IMVI; 6.67 µM (inactive) with SW-620; 8.34 µM (inactive) in the experiment with MDA-MB-435; 12.6 µM (inactive) in the experiment on M14; 20.8 µM (inactive) in the experiment with A498. The GI50 is 11.1 µM (inactive) in the experiment with U-251; 10.4 µM (inactive) in the experiment on IGROV-1; 14.7 µM (inactive) in the experiment on OVCAR-5; 3.2 µM (inactive) in the experiment on K562; 16 µM (inactive) with SF-539; 11.4 µM (inactive) with SK-MEL-28. Moreover, the GI50 in the experiment with OVCAR-4 was 15.6 µM (inactive); in the experiment on HCT-116, 4.57 µM (inactive); in the experiment with SK-MEL-2, 13.6 µM (inactive); in the experiment on CCRF-CEM, 0.897 µM (active); in the experiment on MDA-N, 8.61 µM (inactive); in the experiment with HT-29, 14.9 µM (inactive). Moreover, the GI50 in the experiment with 786-0 is 9.18 µM (inactive).

As to `CN(C)/C=C/c1ccncc1`, the GI50 in the experiment with HCT-15 is greater than 100 µM; in the experiment on LOX IMVI it was > 100 µM (inactive); in the experiment on SW-620, > 100 µM (inactive); with MDA-MB-435 it was > 100 µM (inactive); in the experiment on M14, > 100 µM (inactive); in the experiment with A498, > 100 µM (inactive). Moreover, the GI50 in the experiment with U-251, in the experiment with IGROV-1, with OVCAR-5, in the experiment on K562, with SF-539 and in the experiment with SK-MEL-28 was > 100 µM (inactive) throughout. The GI50 in the experiment on OVCAR-4 was > 100 µM (inactive); with HCT-116, > 100 µM (inactive); in the experiment on SK-MEL-2 it was > 100 µM (inactive); in the experiment with CCRF-CEM it was 48.6 µM (inactive); with MDA-N, > 100 µM (inactive); in the experiment with HT-29, > 100 µM (inactive). In addition, the GI50 in the experiment on 786-0 was > 100 µM (inactive).

Regarding `CCOC(=O)NC(Nc1ccc(S(=O)(=O)Nc2ncccn2)cc1)(C(=O)OCC)C(F)(F)F` (stereo unspecified), the GI50 in the experiment on HCT-15 is greater than 100 µM; in the experiment with LOX IMVI, > 100 µM (inactive); with SW-620 it was > 100 µM (inactive); with MDA-MB-435, > 100 µM (inactive); in the experiment on M14, > 100 µM (inactive); in the experiment on U-251, > 100 µM (inactive). Also, the GI50 with IGROV-1, with OVCAR-5, with K562, in the experiment with SF-539, in the experiment on SK-MEL-28 and in the experiment on OVCAR-4 was > 100 µM (inactive) in each case. In addition, the GI50 in the experiment on HCT-116, in the experiment with SK-MEL-2, in the experiment on CCRF-CEM, with SNB-75, in the experiment with MDA-N and with HT-29 was > 100 µM (inactive) throughout. The GI50 with 786-0 was > 100 µM (inactive).

As for `N#Cc1c(N)nc2[nH]nc(N)c2c1-c1ccccc1`, the GI50 in the experiment with HCT-15 was 5.41 µM; with LOX IMVI it was 3.89 µM (inactive); with SW-620, 26.9 µM (inactive); with MDA-MB-435, 6.93 µM (inactive); in the experiment on M14, 7.03 µM (inactive); with A498, 1.61 µM (inactive). Besides, the GI50 in the experiment with U-251 was 21.2 µM (inactive); in the experiment on IGROV-1, 2.8 µM (inactive); in the experiment with OVCAR-5, 14.9 µM (inactive); with K562, > 41.8 µM (inactive); in the experiment on SF-539 it was 7.16 µM (inactive); in the experiment with SK-MEL-28 it was 14.2 µM (inactive). The GI50 in the experiment with OVCAR-4 was 11.3 µM (inactive); with HCT-116, 7.29 µM (inactive); in the experiment on SK-MEL-2, 3.4 µM (inactive); in the experiment on CCRF-CEM it was 16.4 µM (inactive); in the experiment with MDA-N it was 6.04 µM (inactive); in the experiment with HT-29, 12.2 µM (inactive). The GI50 with 786-0 is 16.8 µM (inactive).
